Laboratory results reported in US20250275975A1, “Methods of Treating Neuropathies” (Athira Pharma, Inc., priority 2023, published 2025).

What was measured:
STZ DNP rats [1] = assay: Thermal hyperalgesia rescue assay (hot plate paw withdrawal latency), Example B1; format: in vivo, Sprague Dawley rats; design: key to Efficacy: rescue of thermal hyperalgesia behavior as measured by paw withdrawal latency: NS indicates treatment did not significantly affect paw withdrawal latency vs disease control.; + indicates p < 0.05 vs disease control.; ++ indicates p < 0.01 vs disease control.; +++ indicates p < 0.001 vs disease control; settings: for Efficacy: rescue of thermal hyperalgesia behavior as measured by paw withdrawal latency: study day 28 after 14 days of treatment, hot plate 52.5° C., p vs disease control
Method: (§1) A series of studies were performed to determine the ability of HGF/MET positive modulator compounds to reduce the mechanical allodynia pain behaviors in hyperglycemic rats. A single dose of STZ (55 mg/kg via intravenous (IV)) was administered to induce a Type I diabetic hyperglycemia in male Sprague Dawley rats. Hyperglycemia was confirmed 4 days after STZ administration, with blood glucose levels above 200 mg/dL considered successful model induction. 14 days after disease induction, test compound treatment was initiated and continued as daily compound administration over the remaining course of the study. Route and dose for each compound were determined by pharmacokinetic and distribution modelling. Control groups included animals with no diabetic induction (Sham control), animals with diabetes but treated only with formulation vehicle (DNP (diabetic peripheral neuropathy) control), and disease animals treated with pregabalin (30 mg/kg via PO), which is known to reduce neuropathic pain behaviors.
(§2) Changes to neuropathic pain behaviors were assessed after 14 days of compound treatment on study day 28. Mechanical allodynia was tested by placing each animal on an elevated wire grid and stimulating the plantar surface of the right rear paw with a series of filaments corresponding to increasing orders of force, reaching a maximum force of 60 grams (Aesthesio manual Von Frey filaments). The force of the filament that causes paw withdrawal was considered the paw withdrawal threshold in grams. Pain sensitivity in response to thermal hyperalgesia was determined by using hot plate method and represented as paw withdrawal latency (PWL). Rats were placed on the hot plate (52.5° C.), and the time taken to show the nocifensive behavior (either licking or jumping) of any of their paws was recorded. Statistical comparison of treatment groups to DNP control groups was performed by one-way ANOVA followed by Dunnett's multiple comparisons test.

[2] = system: neuron-Schwann cell co-cultures injured with cisplatin; assay: Sensory neurite extension and myelination in cisplatin-injured primary dorsal root ganglia cultures; format: cell-based, rat; design: key to Significant promotion of Neurite Network Extension of Sensory Neurons / Significant promotion of Myelination of Sensory neurons by Schwann Cells: “NS” indicates the treatment did not have a significant effect; “+” indicates the treatment had a significant effect; settings: for Significant promotion of Myelination of Sensory neurons by Schwann Cells / Significant promotion of Neurite Network Extension of Sensory Neurons: +Cisplatin injury (10 μg/ml, 24 hours), vs Cisplatin-treated group
Method: (§3) To assess the effects of test compound treatment on these structures central to neuropathic pathology, peripheral sensory neurons were modeled using dissociated primary cultures of neurons and Schwann cells collected from fetal rats. Fetal rats were collected from pregnant females after 15 days of gestation, and the dorsal root ganglion was dissociated via trypsin digestion and mechanical disruption. The resulting cells were plated and allowed to grow for 7 days. On day 7 in culture, ascorbic acid at a concentration of 50 μM was added to the culture to promote myelination of sensory neurons by Schwann cells.
To model the effects of neuropathic injury in sensory neurons and associated Schwann cells, cultures were injured with the chemotherapy drug cisplatin. These cultures were prepared identically to those described above. In this system, Compound 5a, HGF, and β-estradiol treatments began on culture day 19. Also on culture day 19, cisplatin (10 μg/ml) was added to the cultures for 24 hours. On culture day 20, cisplatin was removed from the media while test compound treatments were replaced for 24 hours. On day 21 in culture, cells were fixed and processed for immunodetection as described above.
(§4) 30 fluorescent images were captured for each treatment group and images were quantified by automated image analysis. Neurite network extension was quantified as the total length of MAP2-positive neurites per cell measured in μm. Myelination by Schwann cells was quantified by the area of overlap between MAP2-positive neurites and MAG-positive myelin wrapping measured in μm^2. Statistical analysis was performed as a one-way ANOVA with Fisher's LSD post-test against either vehicle- or Cisplatin-treated groups respectively.

[3] = system: neuron-Schwann cell co-cultures; assay: Sensory neurite extension and myelination in healthy primary dorsal root ganglia cultures; format: cell-based, rat; design: key to Significant promotion of Neurite Network Extension of Sensory Neurons / Significant promotion of Myelination of Sensory neurons by Schwann Cells: “NS” indicates the treatment did not have a significant effect; “+” indicates the treatment had a significant effect; settings: for Significant promotion of Myelination of Sensory neurons by Schwann Cells / Significant promotion of Neurite Network Extension of Sensory Neurons: Healthy cultures, vs vehicle
Method: as §3
To model the effects of Compound 5a in the normal peripheral nervous system, neuron-Schwann cell co-cultures were treated with Compound 5a in combination with low doses of recombinant hepatocyte growth factor (HGF). On day 8 in culture, experimental treatments were added to culture media. These treatments included HGF with or without Compound 5a. Some cultures were treated with the steroid hormone B-estradiol to serve as a positive control. Treatments were applied every other day, and on day 21 in culture the cultures were fixed with ethanol and processed for immunodetection of both microtubule-associate protein 2 (MAP2) to reveal neurons and their neurites as well as myelin-associated glycoprotein (MAG) to reveal Schwann cells and the extent of their myelination of cultured neurites. Cells were counterstained with Hoechst DNA dye to identify individual cells.
as §4

STZ DNP rats [4] = assay: Mechanical allodynia rescue assay (Von Frey paw withdrawal threshold), Example B1; format: in vivo, Sprague Dawley rats; design: key to Efficacy: rescue of mechanical allodynia behavior as measured by paw withdrawal threshold: NS indicates treatment did not significantly affect paw withdrawal threshold vs disease control.; + indicates p < 0.05 vs disease control.; ++ indicates p < 0.01 vs disease control.; +++ indicates p < 0.001 vs disease control; settings: for Efficacy: rescue of mechanical allodynia behavior as measured by paw withdrawal threshold: study day 28 after 14 days of treatment, p vs disease control
Text: Hyperglycemic rats consistently develop neuropathic pain-associated behaviors including mechanical allodynia. Allodynia refers to a type of neuropathic pain characterized by increased sensitivity to stimuli that are not normally painful. Mechanical allodynia is quantified in rats by determination of the force required to induce a withdrawal of the paw and is negatively associated with allodynia such that, the lower the force required to induce paw withdrawal, the greater the pain behavior.
as §1, §2

[5] = Compound 5a 0.1 μM with HGF 0.05 ng/ml
[6] = Compound 5a 0.5 μM with HGF 0.05 ng/ml
[7] = Compound 5a 1 μM with HGF 0.05 ng/ml
[8] = injured cultures, Compound 5a at 0.1, 0.5, and 1 μM with HGF (0.05 ng/ml)
[9] = healthy cultures, 0.5 μM Compound 5a with HGF (0.05 ng/ml)

SMILES: CCC(C)CN1CC2N(Cc3ccc(C(F)(F)F)cc3)CCC(=O)N2[C@@H](C)C1=O (stereo partly shown) [Compound 5a]
- Efficacy: rescue of thermal hyperalgesia behavior as measured by paw withdrawal latency (STZ DNP rats [1]; 0.003 mg/kg IV daily): + (+ indicates p < 0.05 vs disease control.)
- Efficacy: rescue of thermal hyperalgesia behavior as measured by paw withdrawal latency (STZ DNP rats [1]; 0.015 mg/kg IV daily): NS
- Efficacy: rescue of thermal hyperalgesia behavior as measured by paw withdrawal latency (STZ DNP rats [1]; 0.075 mg/kg IV daily): + (+ indicates p < 0.05 vs disease control.)
- Efficacy: rescue of thermal hyperalgesia behavior as measured by paw withdrawal latency (STZ DNP rats [1]; 0.375 mg/kg IV daily): ++ (++ indicates p < 0.01 vs disease control.)
- Efficacy: rescue of thermal hyperalgesia behavior as measured by paw withdrawal latency (STZ DNP rats [1]; 1 mg/kg PO daily): NS
- Efficacy: rescue of thermal hyperalgesia behavior as measured by paw withdrawal latency (STZ DNP rats [1]; 2 mg/kg PO daily): + (+ indicates p < 0.05 vs disease control.)
- Efficacy: rescue of thermal hyperalgesia behavior as measured by paw withdrawal latency (STZ DNP rats [1]; 10 mg/kg PO daily): +++ (+++ indicates p < 0.001 vs disease control.)
- Efficacy: rescue of thermal hyperalgesia behavior as measured by paw withdrawal latency (STZ DNP rats [1]; 20 mg/kg PO daily): +++ (+++ indicates p < 0.001 vs disease control.)
- rescue of thermal allodynia behavior as measured by paw withdrawal latency (STZ DNP rats [1]; STZ DNP rats): significant rescue
- Significant promotion of Myelination of Sensory neurons by Schwann Cells [2, 5]: +
- Significant promotion of Neurite Network Extension of Sensory Neurons [2, 5]: +
- Significant promotion of Myelination of Sensory neurons by Schwann Cells [2, 6]: +
- Significant promotion of Neurite Network Extension of Sensory Neurons [2, 6]: +
- Significant promotion of Myelination of Sensory neurons by Schwann Cells [2, 7]: +
- Significant promotion of Neurite Network Extension of Sensory Neurons [2, 7]: +
- myelination [2, 8]: significantly promoted
- neurite network extension [2, 8]: significantly promoted
- Significant promotion of Myelination of Sensory neurons by Schwann Cells [3, 5]: +
- Significant promotion of Neurite Network Extension of Sensory Neurons [3, 5]: NS
- Significant promotion of Myelination of Sensory neurons by Schwann Cells [3, 6]: +
- Significant promotion of Neurite Network Extension of Sensory Neurons [3, 6]: +
- Significant promotion of Myelination of Sensory neurons by Schwann Cells [3, 7]: NS
- Significant promotion of Neurite Network Extension of Sensory Neurons [3, 7]: NS
- myelination [3, 9]: significant promotion
- neurite network extension [3, 9]: significant promotion
- Efficacy: rescue of mechanical allodynia behavior as measured by paw withdrawal threshold (STZ DNP rats [4]; 0.003 mg/kg IV daily): NS
- Efficacy: rescue of mechanical allodynia behavior as measured by paw withdrawal threshold (STZ DNP rats [4]; 0.015 mg/kg IV daily): NS
- Efficacy: rescue of mechanical allodynia behavior as measured by paw withdrawal threshold (STZ DNP rats [4]; 0.075 mg/kg IV daily): NS
- Efficacy: rescue of mechanical allodynia behavior as measured by paw withdrawal threshold (STZ DNP rats [4]; 0.375 mg/kg IV daily): ++ (++ indicates p < 0.01 vs disease control.)
- Efficacy: rescue of mechanical allodynia behavior as measured by paw withdrawal threshold (STZ DNP rats [4]; 1 mg/kg PO daily): ++ (++ indicates p < 0.01 vs disease control.)
- Efficacy: rescue of mechanical allodynia behavior as measured by paw withdrawal threshold (STZ DNP rats [4]; 2 mg/kg PO daily): +++ (+++ indicates p < 0.001 vs disease control.)
- Efficacy: rescue of mechanical allodynia behavior as measured by paw withdrawal threshold (STZ DNP rats [4]; 10 mg/kg PO daily): +++ (+++ indicates p < 0.001 vs disease control.)
- Efficacy: rescue of mechanical allodynia behavior as measured by paw withdrawal threshold (STZ DNP rats [4]; 20 mg/kg PO daily): +++ (+++ indicates p < 0.001 vs disease control.)
- rescue of the mechanical allodynia behavior as measured by paw withdrawal threshold (STZ DNP rats [4]; STZ DNP rats): significant rescue
